Experimental data from ChEMBL document CHEMBL1201862, “PubChem BioAssay data set” (2004).
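96-well plates; 48 h exposure; 5 concentrations. Endpoints by linear interpolation between flanking doses. Not reached: highest tested concentration assigned. Abbreviation: GI50, concentration required for 50% inhibition of growth.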 Activity calls are given as the source filed them. No stated cut-off is given here; in the data, active = GI50 up to about 1.1 µM and inactive = higher.

Tests used:
Assay in all cases: NCI-60 cell line screen, 48 h
[1] = tested on: SF-295
[2] = tested on: U-251
[3] = tested on: TK-10
[4] = tested on: SK-MEL-2
[5] = tested on: UACC-62
[6] = tested on: HCT-116
[7] = tested on: UO-31
[8] = tested on: OVCAR-8
[9] = tested on: CCRF-CEM
[10] = tested on: HOP-62
[11] = tested on: DMS-114
[12] = tested on: MOLT-4
[13] = tested on: SN12C
[14] = tested on: HT-29
[15] = tested on: SK-OV-3
[16] = tested on: HOP-92
[17] = tested on: M14
[18] = tested on: NCI-H460
[19] = tested on: SK-MEL-28
[20] = tested on: HCT-15
[21] = tested on: Malme-3M
[22] = tested on: SW-620
[23] = tested on: K562
[24] = tested on: NCI-H522
[25] = tested on: SNB-75
[26] = tested on: OVCAR-3
[27] = tested on: A549
[28] = tested on: M19-MEL
[29] = tested on: NCI-H226
[30] = tested on: ACHN
[31] = tested on: SR
[32] = tested on: UACC-257
[33] = tested on: OVCAR-4
[34] = tested on: DMS-273
[35] = tested on: DLD-1
[36] = tested on: 786-0
[37] = tested on: IGROV-1
[38] = tested on: OVCAR-5
[39] = tested on: COLO 205
[40] = tested on: KM12
[41] = tested on: A498
[42] = tested on: SF-268
[43] = tested on: SK-MEL-5
[44] = tested on: RXF 393
[45] = tested on: SNB-78
[46] = tested on: NCI-H23
[47] = tested on: SF-539
[48] = tested on: KM-20L2
[49] = tested on: LXFL 529
[50] = tested on: RPMI-8226
[51] = tested on: CAKI-1
[52] = tested on: HOP-18
[53] = tested on: LOX IMVI
[54] = tested on: HL-60
[55] = tested on: SNB-19
[56] = tested on: HCC 2998
[57] = tested on: EKVX
[58] = tested on: PC-3
[59] = tested on: Hs-578T
[60] = tested on: MDA-MB-231
[61] = tested on: MCF7
[62] = tested on: T47D
[63] = tested on: BT-549
[64] = tested on: MDA-MB-435
[65] = tested on: NCI/ADR-RES
[66] = tested on: DU-145
[67] = tested on: MDA-N

## c1ccc(C2OCCO2)c(OCCOc2cc(OCCOc3ccccc3C3OCCO3)c(OCCOc3ccccc3C3OCCO3)cc2OCCOc2ccccc2C2OCCO2)c1
[1]
  GI50: 17.9 µM (inactive)
[2]
  GI50: 10.3 µM (inactive)
[3]
  GI50: 14.7 µM (inactive)
[4]
  GI50: 16.5 µM (inactive)
[5]
  GI50: 9.86 µM (inactive)
[6]
  GI50: 14.5 µM (inactive)
[7]
  GI50: 12.9 µM (inactive)
[8]
  GI50: 13.9 µM (inactive)
[9]
  GI50: > 100 µM (inactive)
[10]
  GI50: 13.3 µM (inactive)
[11]
  GI50: 11.8 µM (inactive)
[12]
  GI50: > 100 µM (inactive)
[13]
  GI50: > 100 µM (inactive)
[14]
  GI50: > 100 µM (inactive)
[15]
  GI50: 2.76 µM (inactive)
[16]
  GI50: 5.28 µM (inactive)
[17]
  GI50: 26.7 µM (inactive)
[18]
  GI50: 24.3 µM (inactive)
[19]
  GI50: > 100 µM (inactive)
[20]
  GI50: > 100 µM
[21]
  GI50: 43.1 µM (inactive)
[22]
  GI50: 81.3 µM (inactive)
[23]
  GI50: > 100 µM (inactive)
[24]
  GI50: 2.42 µM (inactive)
[25]
  GI50: 2.16 µM (inactive)
[26]
  GI50: 17.8 µM (inactive)
[27]
  GI50: 24.4 µM (inactive)
[28]
  GI50: > 100 µM (inactive)
[29]
  GI50: 13 µM (inactive)
[30]
  GI50: 24.7 µM (inactive)
[31]
  GI50: > 100 µM (inactive)
[32]
  GI50: > 100 µM (inactive)
[33]
  GI50: 8.34 µM (inactive)
[34]
  GI50: 15.3 µM (inactive)
[35]
  GI50: > 100 µM (inactive)
[36]
  GI50: 4.67 µM (inactive)
[37]
  GI50: 12.4 µM (inactive)
[38]
  GI50: > 100 µM (inactive)
[39]
  GI50: > 100 µM (inactive)
[40]
  GI50: 91.8 µM (inactive)
[41]
  GI50: 15.8 µM (inactive)
[42]
  GI50: 15.3 µM (inactive)
[43]
  GI50: 26.1 µM (inactive)
[44]
  GI50: 5.35 µM (inactive)
[45]
  GI50: 5.46 µM (inactive)
[46]
  GI50: 11.3 µM (inactive)
[47]
  GI50: 10.7 µM (inactive)
[48]
  GI50: > 100 µM (inactive)
[49]
  GI50: 29.2 µM (inactive)
[50]
  GI50: > 100 µM (inactive)
[51]
  GI50: > 100 µM (inactive)
[52]
  GI50: > 100 µM (inactive)
[53]
  GI50: 49.4 µM (inactive)
[54]
  GI50: > 100 µM (inactive)

## C=CCC1OC(C)(C)Oc2ccc(OCOCCOC)cc21 (stereo not drawn)
[1]
  GI50: > 100 µM (inactive)
[2]
  GI50: > 100 µM (inactive)
[3]
  GI50: > 100 µM (inactive)
[4]
  GI50: > 100 µM (inactive)
[5]
  GI50: > 100 µM (inactive)
[6]
  GI50: > 100 µM (inactive)
[7]
  GI50: > 100 µM (inactive)
[8]
  GI50: > 100 µM (inactive)
[10]
  GI50: > 100 µM (inactive)
[11]
  GI50: > 100 µM (inactive)
[12]
  GI50: > 100 µM (inactive)
[13]
  GI50: > 100 µM (inactive)
[14]
  GI50: > 100 µM (inactive)
[15]
  GI50: > 100 µM (inactive)
[16]
  GI50: > 100 µM (inactive)
[17]
  GI50: > 100 µM (inactive)
[18]
  GI50: > 100 µM (inactive)
[19]
  GI50: > 100 µM (inactive)
[20]
  GI50: > 100 µM
[21]
  GI50: > 100 µM (inactive)
[22]
  GI50: > 100 µM (inactive)
[23]
  GI50: > 100 µM (inactive)
[25]
  GI50: > 100 µM (inactive)
[26]
  GI50: > 100 µM (inactive)
[27]
  GI50: > 100 µM (inactive)
[55]
  GI50: > 100 µM (inactive)
[29]
  GI50: > 10 µM (inactive)
[30]
  GI50: > 100 µM (inactive)
[32]
  GI50: > 100 µM (inactive)
[33]
  GI50: > 100 µM (inactive)
[36]
  GI50: > 100 µM (inactive)
[37]
  GI50: > 100 µM (inactive)
[38]
  GI50: > 100 µM (inactive)
[40]
  GI50: > 100 µM (inactive)
[41]
  GI50: > 100 µM (inactive)
[42]
  GI50: > 100 µM (inactive)
[43]
  GI50: > 100 µM (inactive)
[56]
  GI50: > 100 µM (inactive)
[57]
  GI50: > 100 µM (inactive)
[44]
  GI50: > 100 µM (inactive)
[46]
  GI50: > 100 µM (inactive)
[47]
  GI50: > 100 µM (inactive)
[49]
  GI50: > 100 µM (inactive)
[51]
  GI50: > 100 µM (inactive)
[53]
  GI50: > 100 µM (inactive)

## COc1ccc2c(c1)/c(=C/C#N)c1c3ccccc3[n+](C)n21
[1]
  GI50: 7.69 µM (inactive)
[2]
  GI50: 2.75 µM (inactive)
[3]
  GI50: 6.9 µM (inactive)
[58]
  GI50: 2.8 µM (inactive)
[4]
  GI50: 14.5 µM (inactive)
[5]
  GI50: 13.6 µM (inactive)
[6]
  GI50: 3.13 µM (inactive)
[7]
  GI50: 16.7 µM (inactive)
[8]
  GI50: 11.4 µM (inactive)
[9]
  GI50: 2.04 µM (inactive)
[10]
  GI50: 5.73 µM (inactive)
[59]
  GI50: 8.55 µM (inactive)
[12]
  GI50: 3.3 µM (inactive)
[13]
  GI50: 7 µM (inactive)
[14]
  GI50: 2.24 µM (inactive)
[15]
  GI50: 15.5 µM (inactive)
[16]
  GI50: 1.16 µM (inactive)
[17]
  GI50: 6.87 µM (inactive)
[18]
  GI50: 7.23 µM (inactive)
[19]
  GI50: 5.58 µM (inactive)
[20]
  GI50: 20.1 µM
[21]
  GI50: 5.21 µM (inactive)
[22]
  GI50: 4.13 µM (inactive)
[60]
  GI50: 24 µM (inactive)
[23]
  GI50: 8.69 µM (inactive)
[24]
  GI50: 4.33 µM (inactive)
[25]
  GI50: 3.7 µM (inactive)
[61]
  GI50: 6.1 µM (inactive)
[26]
  GI50: 1.34 µM (inactive)
[27]
  GI50: 3.39 µM (inactive)
[55]
  GI50: 7.16 µM (inactive)
[29]
  GI50: 4.29 µM (inactive)
[30]
  GI50: 9.38 µM (inactive)
[31]
  GI50: 6.34 µM (inactive)
[32]
  GI50: 6.14 µM (inactive)
[62]
  GI50: 2.51 µM (inactive)
[33]
  GI50: 4.37 µM (inactive)
[36]
  GI50: 3.95 µM (inactive)
[63]
  GI50: 9.08 µM (inactive)
[37]
  GI50: 7.62 µM (inactive)
[38]
  GI50: 8.63 µM (inactive)
[39]
  GI50: 2.34 µM (inactive)
[40]
  GI50: 6.04 µM (inactive)
[64]
  GI50: 6.87 µM (inactive)
[65]
  GI50: 18.4 µM (inactive)
[41]
  GI50: 1.7 µM (inactive)
[42]
  GI50: 8.71 µM (inactive)
[43]
  GI50: 6.62 µM (inactive)
[66]
  GI50: 1.71 µM (inactive)
[56]
  GI50: 1.44 µM (inactive)
[57]
  GI50: 2.69 µM (inactive)
[44]
  GI50: 10.9 µM (inactive)
[46]
  GI50: 5.3 µM (inactive)
[47]
  GI50: 0.767 µM (active)
[67]
  GI50: 5.43 µM (inactive)
[50]
  GI50: 1.96 µM (inactive)
[51]
  GI50: 16.1 µM (inactive)
[53]
  GI50: 5.97 µM (inactive)
[54]
  GI50: 3.05 µM (inactive)
